# Assay results from article PMC6349869, “The palladacycle complex AJ-5 induces apoptotic cell death while reducing autophagic flux in rhabdomyosarcoma cells” (Cell Death Discovery, 2019).
# pIC50: −log10 of the molar value.
# Columns and labels:
# Type in all cases: cell-based, human
# [1] = tested on: SW1353, SW872, SW982, HT1080 and MG-63 cells; test: Clonogenic assay, sarcoma subtypes; settings: ¼ IC50, 24 h, all sarcoma subtypes
# Method: (§1) Cells were seeded in 6-well plates and treated the following day with IC50, ½ IC50, ¼ IC50 AJ-5 and vehicle. After 24 h, 800–4000 cells were seeded in 35 mm dishes in drug-free medium. Formation of colonies were monitored and after 7–21 days cells were fixed with 3:1 methanol:acetic acid and stained with 0.5% crystal violet (Sigma Aldrich) in 100% methanol. Colonies were imaged and percentage colony area was determined using ImageJ v1.50i[58] and the plugin ColonyArea[59]. Colony area was determined for each drug concentration and expressed as a percentage of vehicletreated control.
# Fig. S2 AJ-5 is cytotoxic in a range of sarcoma subtypes. […] Graphs show mean cell viability as a percentage of vehicle control ± SEM for each concentration of AJ-5 determined from three independent experiments performed in quadruplicate. […] (B) Selectivity indices (SIs) were determined for each cell line by dividing the IC50 of each non-malignant cell line (Fig. 1C) including normal fibroblast cell lines (FG0 and DMB) and mesenchymal stem cell line (A10021501) by the IC50 of each sarcoma cell line. […] Colonies were stained with crystal violet and images from three independent repeats were quantified using the ImageJ plugin ColonyArea. […] Data was analysed using GraphPad Prism 6.0 and a parametric unpaired t-test was performed *p<0.05, **p<0.01, ***p<0.001.
# aRMS and eRMS cells = test: MTT cell viability assay, RMS cell lines (summary statements); settings: alveolar and embryonal RMS cells
# Method: RH30 human aRMS cells (kindly provided by Associate Professor Judith Davie, Southern Illinois University), AX-OH-1 human aRMS and FL-OH-1 human eRMS cells (kindly provided by Professor Stefan Bath, University of Cape Town) were cultured in Roswell Park Memorial Institute Medium (RPMI)-1640 (Sigma Aldrich, Missouri, USA). […] Cell morphology was monitored using an Olympus CKX41 inverted microscope (MSAC Ltd, UK) and imaged with an EVOS™ XL AMEX1000 Core Imaging System (Thermo Fisher Scientific, Massachusetts, USA).
# Cells were seeded in 96-well plates and treated the next day with a range of AJ-5 concentrations (0.1–1.0 μM) or vehicle ([…]) for 48 h. Cell viability was measured using the 3-(4,5-dimethylthiazol-2-yl)-2,5-diphenyl-trazolium bromide (MTT) assay (11465007001; Sigma Aldrich) according to the manufacturer’s instructions. Mean cell viability was calculated as a percentage of the mean vehicle control. At least three independent experiments in quadruplicate were performed from which the half maximal inhibitory concentration (IC50) was determined using GraphPad Prism version 6.0 (GraphPad Software, California, USA). The selectivity index (SI) was determined by dividing the IC50 of a normal cell line by the IC50 of a cancer cell line.
# [2] = tested on: RMS cells (RH30, AX-OH-1, RD, FL-OH-1); test: Clonogenic assay, RMS cells
# Method: as §1
smiles,measurement,setting,value
CC(C)c1cccc(C(C)C)c1[N+]1=Cc2cccc[c]2[Pd-2]1([Cl])[P+](CC[P+](c1ccccc1)(c1ccccc1)[Pd-2]1([Cl])[c]2ccccc2C=[N+]1c1c(C(C)C)cccc1C(C)C)(c1ccccc1)c1ccccc1 (stereo not shown) [AJ-5],Ability of sarcoma cells to survive and proliferate (colony area),[1],significantly reduced
same,pIC50,aRMS and eRMS cells,≥ 6.70
same,Colony formation at IC50 concentrations,"[2]; 24 h treatment at IC50, colonies after 7–21 days",only a few or no RMS cell colonies formed
same,Ability of RMS cells to survive and proliferate (colony area),"[2]; 24 h treatment with ¼ IC50, ½ IC50 or IC50, colonies after 7–21 days",significantly inhibits the ability of RMS cells to survive and proliferate
